Source: ChEMBL document CHEMBL1201862, “PubChem BioAssay data set” (2004)
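Results reflect a 48-hour exposure of cells in 96-well plates to compound at five concentrations. GI50 = concentration required for 50% inhibition of growth.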 Activity calls are given as the source filed them. No stated cut-off is given here; in the data, active = GI50 up to about 1.1 µM and inactive = higher.

Key:
Assay in all cases: NCI-60 cell line screen, 48 h
MDA-MB-435 = system: MDA-MB-435
OVCAR-8 = system: OVCAR-8
RPMI-8226 = system: RPMI-8226
SK-MEL-28 = system: SK-MEL-28
BT-549 = system: BT-549
MCF7 = system: MCF7
SNB-19 = system: SNB-19
MOLT-4 = system: MOLT-4
SR = system: SR
NCI-H226 = system: NCI-H226
PC-3 = system: PC-3
K562 = system: K562
KM12 = system: KM12
UO-31 = system: UO-31
786-0 = system: 786-0
ACHN = system: ACHN
A498 = system: A498
SF-295 = system: SF-295
UACC-257 = system: UACC-257
DU-145 = system: DU-145

Row | Structure (SMILES) | GI50 (MDA-MB-435) | GI50 (OVCAR-8) | GI50 (RPMI-8226) | GI50 (SK-MEL-28) | GI50 (BT-549) | GI50 (MCF7) | GI50 (SNB-19) | GI50 (MOLT-4) | GI50 (SR) | GI50 (NCI-H226) | GI50 (PC-3) | GI50 (K562) | GI50 (KM12) | GI50 (UO-31) | GI50 (786-0) | GI50 (ACHN) | GI50 (A498) | GI50 (SF-295) | GI50 (UACC-257) | GI50 (DU-145)
1 | CCCCCCCCCCCCCCC(O)C[N+](C)(CCO)CCO (centres undefined) | 6.12 µM (inactive) | 4.11 µM (inactive) | 1.92 µM (inactive) | 9.79 µM (inactive) | 3.05 µM (inactive) | 12.6 µM (inactive) | 1.49 µM (inactive) | 1.91 µM (inactive) | 1.92 µM (inactive) | 2.04 µM (inactive) | 1.72 µM (inactive) | 4.24 µM (inactive) | 1.94 µM (inactive) | 4.27 µM (inactive) | 1.98 µM (inactive) | 6.01 µM (inactive) | 4.99 µM (inactive) | 2.25 µM (inactive) | 11.1 µM (inactive) | 11 µM (inactive)
2 | COC(=O)c1c(C)cccc1C1CN=NC12Cc1ccccc1C2=O (centres undefined) | > 82 µM (inactive) | > 100 µM (inactive) | 35.3 µM (inactive) | > 71.1 µM (inactive) | 54.5 µM (inactive) | 2.46 µM (inactive) | > 100 µM (inactive) | 36.2 µM (inactive) | 47.2 µM (inactive) | > 83.4 µM (inactive) | 78.5 µM (inactive) | 37.1 µM (inactive) | > 78 µM (inactive) | 33.1 µM (inactive) | > 100 µM (inactive) | > 100 µM (inactive) | 98.6 µM (inactive) | 62.2 µM (inactive) | 36.1 µM (inactive) | > 100 µM (inactive)
3 | O=C1CSC(c2ccccc2O)N1c1nc2cc3sc(N4C(=O)CSC4c4ccccc4O)nc3cc2s1 (centres undefined) | 34.3 µM (inactive) | 37.2 µM (inactive) | 32.1 µM (inactive) | > 79.1 µM (inactive) | 11.9 µM (inactive) | 11.5 µM (inactive) | 42 µM (inactive) | 4.06 µM (inactive) | 7.71 µM (inactive) | 21 µM (inactive) | 45.7 µM (inactive) | 64.3 µM (inactive) | > 68.4 µM (inactive) | 23.3 µM (inactive) | > 100 µM (inactive) | > 44.6 µM (inactive) | > 42.9 µM (inactive) | > 100 µM (inactive) | > 36.3 µM (inactive) | 34.7 µM (inactive)
4 | c1ccc(COc2ncccc2C2SCCCS2)cc1 | > 100 µM (inactive) | > 100 µM (inactive) | > 100 µM (inactive) | > 100 µM (inactive) | > 100 µM (inactive) | 84.3 µM (inactive) | > 100 µM (inactive) |  | 70 µM (inactive) | > 100 µM (inactive) | > 100 µM (inactive) | 96.4 µM (inactive) | > 100 µM (inactive) | > 100 µM (inactive) | > 100 µM (inactive) | > 100 µM (inactive) | > 100 µM (inactive) | > 100 µM (inactive) | > 100 µM (inactive) | > 100 µM (inactive)
5 | C(=C\c1cc(-c2ccc3ccccc3n2)nc2ccc3ccccc3c12)/c1ccc2ccccc2n1 | > 100 µM (inactive) | > 100 µM (inactive) | > 100 µM (inactive) | > 100 µM (inactive) | > 100 µM (inactive) | > 100 µM (inactive) | > 100 µM (inactive) | > 100 µM (inactive) | > 100 µM (inactive) | > 100 µM (inactive) | > 100 µM (inactive) | > 100 µM (inactive) | > 100 µM (inactive) | > 100 µM (inactive) | > 100 µM (inactive) | > 100 µM (inactive) | > 100 µM (inactive) | > 100 µM (inactive) | > 100 µM (inactive) | > 100 µM (inactive)
6 | CC1OC(OC2C(CO)OC(O[C@H]3CC[C@@]4(C)C(=CC[C@H]5[C@@H]6C[C@@H]7O[C@](O)(CC[C@H](C)COC8OC(CO)C(O)C(O)C8O)[C@@H](C)[C@@H]7[C@@]6(C)CC[C@@H]54)C3)C(OC3OC(C)C(O)C(O)C3O)C2O)C(O)C(O)C1O (some centres undefined) | 2.07 µM (inactive) | 4.06 µM (inactive) | 6.25 µM (inactive) | 2.94 µM (inactive) | 4.48 µM (inactive) | 7.8 µM (inactive) | 2.8 µM (inactive) | 2.29 µM (inactive) | > 100 µM (inactive) | 9.62 µM (inactive) | 4.48 µM (inactive) | 2.8 µM (inactive) | 2.36 µM (inactive) | 3.63 µM (inactive) | 2.52 µM (inactive) | 14.3 µM (inactive) | 26.7 µM (inactive) | 4.41 µM (inactive) | 6.64 µM (inactive) | 2.35 µM (inactive)
7 | CCOC(=O)c1c(N2CCOCC2)[nH]c(=O)c(C(c2c(O)c(C(=O)OCC)c(N3CCOCC3)[nH]c2=O)C(C)C)c1O | > 100 µM (inactive) | > 100 µM (inactive) | > 100 µM (inactive) | > 100 µM (inactive) | > 100 µM (inactive) | > 100 µM (inactive) | 83.6 µM (inactive) | > 100 µM (inactive) | > 100 µM (inactive) | > 100 µM (inactive) | > 100 µM (inactive) | > 100 µM (inactive) | > 100 µM (inactive) | > 100 µM (inactive) | 60.1 µM (inactive) | > 100 µM (inactive) | > 100 µM (inactive) | 58.3 µM (inactive) | > 100 µM (inactive) | > 100 µM (inactive)
8 | [O-][n+]1ccccc1Sc1nc(Sc2cccc[n+]2[O-])nc(Sc2cccc[n+]2[O-])n1 | 1.07 µM (active) | 0.569 µM (active) | 0.385 µM (active) | 0.697 µM (active) | 1.61 µM (inactive) | 0.778 µM (active) | 13 µM (inactive) | 0.189 µM (active) | 0.171 µM (active) | 2.42 µM (inactive) | 0.726 µM (active) | 0.279 µM (active) | 1.88 µM (inactive) | 1.77 µM (inactive) | 1.27 µM (inactive) | 1.54 µM (inactive) | 2.82 µM (inactive) | 3.14 µM (inactive) | 2.4 µM (inactive) | 3.27 µM (inactive)
9 | Cc1ccccc1NC(=O)O/N=C(\Cl)C(C)C | 13.2 µM (inactive) | 17.5 µM (inactive) | 1.86 µM (inactive) | 2.4 µM (inactive) | 5.32 µM (inactive) | 7.98 µM (inactive) | 20.8 µM (inactive) | 2.74 µM (inactive) | 2.85 µM (inactive) | 16 µM (inactive) | 17.1 µM (inactive) | 1.46 µM (inactive) | 18.6 µM (inactive) | 17.4 µM (inactive) | 1.81 µM (inactive) | 1.69 µM (inactive) | 17.9 µM (inactive) | 18.9 µM (inactive) | 14.9 µM (inactive) | 17.2 µM (inactive)
10 | CCOc1cc(NC(C)=O)ccc1C(=O)NN1C(=O)C(Cl)C1c1ccco1 (centres undefined) | 15 µM (inactive) | 43.5 µM (inactive) | 18.3 µM (inactive) | 22.6 µM (inactive) | 13.5 µM (inactive) | 13.4 µM (inactive) | 17 µM (inactive) | 7.01 µM (inactive) | 13.9 µM (inactive) | 18.5 µM (inactive) | 17.9 µM (inactive) | 19.3 µM (inactive) | 18.5 µM (inactive) | 2.86 µM (inactive) | 16.1 µM (inactive) | 15.7 µM (inactive) | 16.4 µM (inactive) | 16 µM (inactive) | 15.7 µM (inactive) | 17.3 µM (inactive)
11 | O=C1N[C@H]2C(=O)c3c(Cl)sc(Cl)c3[C@H]2O1 | 4.81 µM (inactive) | 2.79 µM (inactive) | 13.3 µM (inactive) | 6.64 µM (inactive) | 23.3 µM (inactive) | 16.7 µM (inactive) | 15.2 µM (inactive) | 3.12 µM (inactive) | 2.56 µM (inactive) | 32.1 µM (inactive) | 14.2 µM (inactive) | 1.99 µM (inactive) | 17.3 µM (inactive) | 1.71 µM (inactive) | 14.2 µM (inactive) | 7.6 µM (inactive) | 24.1 µM (inactive) | 16.9 µM (inactive) | 6.7 µM (inactive) | 11.2 µM (inactive)
12 | COc1cc2c(c(OC)c1OC)C(=O)[C@@H]1[C@H]2N1C(=O)NCCCl | 32.6 µM (inactive) | 79.4 µM (inactive) | 70 µM (inactive) | > 100 µM (inactive) | 80.5 µM (inactive) | 27.6 µM (inactive) | > 100 µM (inactive) | 50.7 µM (inactive) | 46.2 µM (inactive) | 64 µM (inactive) | 58.2 µM (inactive) | 45.8 µM (inactive) | 53.3 µM (inactive) | 73.5 µM (inactive) | > 100 µM (inactive) | 50.5 µM (inactive) | 70.1 µM (inactive) | > 100 µM (inactive) | 79.8 µM (inactive) | 66.8 µM (inactive)
13 | CCn1c2c(n(CC)c1=S)-c1c(n(CC)c(=S)n1CC)SSSS2 | 13.3 µM (inactive) | 8.77 µM (inactive) | 2.82 µM (inactive) | 7.31 µM (inactive) | 15.4 µM (inactive) | 16 µM (inactive) | > 84.1 µM (inactive) | 2.31 µM (inactive) | 1.69 µM (inactive) | 31.8 µM (inactive) | > 10 µM (inactive) | 1.03 µM (active) | 19.2 µM (inactive) | 12.7 µM (inactive) | 16.7 µM (inactive) | 5.02 µM (inactive) | 37.5 µM (inactive) | 40.7 µM (inactive) | 8.57 µM (inactive) | > 100 µM (inactive)
14 | O=C1c2c(Br)sc(Br)c2[C@@H](NC(=O)C(F)(F)F)C1Br (some centres undefined) | 2.13 µM (inactive) | 2.68 µM (inactive) | 2.33 µM (inactive) | 3.05 µM (inactive) | 3.03 µM (inactive) | 5.71 µM (inactive) | 13 µM (inactive) | 2.2 µM (inactive) | 2.07 µM (inactive) | 5.53 µM (inactive) | 4.3 µM (inactive) | 1.93 µM (inactive) | 5.66 µM (inactive) | 5.92 µM (inactive) | 2.13 µM (inactive) | 2.5 µM (inactive) | 15.3 µM (inactive) | 16.8 µM (inactive) | 1.51 µM (inactive) | 6.71 µM (inactive)
